Assay results taken from article PMC5218480 (PLoS ONE, 2017).

Tested on: MV-4-11 cells
Assay: Gene expression microarray analysis (Affymetrix PrimeView) and GSEA
Type: cell-based, human
Set-up: RFU PODN (11730768_x_at) / Fold change /veh PODN (11730768_x_at) / RFU LINC00158 (11744669_a_at) / Fold change /veh LINC00158 (11744669_a_at) / RFU DUSP10 (11751237_a_at) / Fold change /veh DUSP10 (11751237_a_at) / RFU ID3 (11757404_x_at) / Fold change /veh ID3 (11757404_x_at) / RFU PLEKHG5 (11737974_s_at) / Fold change /veh PLEKHG5 (11737974_s_at) / RFU LRRC4B (11730491_at) / Fold change /veh LRRC4B (11730491_at) / RFU GIMAP4 (11747438_a_at) / Fold change /veh GIMAP4 (11747438_a_at) / RFU KRT8 (11758183_x_at) / Fold change /veh KRT8 (11758183_x_at) / RFU CNN1 (11734310_a_at) / Fold change /veh CNN1 (11734310_a_at) / RFU VPS37D (11726825_at) / Fold change /veh VPS37D (11726825_at) / RFU C10orf10 (11716522_x_at) / Fold change /veh C10orf10 (11716522_x_at) / RFU KIR2DL2 /// KIR2DL4 /// KIR2DL5A /// KIR2DL5B /// KIR2DS1 /// KIR2DS2 /// KIR2DS3 /// KIR2DS4 /// KIR3DL3 /// KIR3DL3 /// KIR3DS1 (11738374_at) / Fold change /veh KIR2DL2 /// KIR2DL4 /// KIR2DL5A /// KIR2DL5B /// KIR2DS1 /// KIR2DS2 /// KIR2DS3 /// KIR2DS4 /// KIR3DL3 /// KIR3DL3 /// KIR3DS1 (11738374_at) / RFU C1QL1 (11718748_at) / Fold change /veh C1QL1 (11718748_at) / RFU TMPRSS4 (11747572_a_at) / Fold change /veh TMPRSS4 (11747572_a_at) / RFU HAMP (11756126_x_at) / Fold change /veh HAMP (11756126_x_at) / RFU RNFT2 (11725882_a_at) / Fold change /veh RNFT2 (11725882_a_at) / RFU NR4A2 (11747474_a_at) / Fold change /veh NR4A2 (11747474_a_at) / RFU ABCC12 (11746883_a_at) / Fold change /veh ABCC12 (11746883_a_at) / RFU TMEM136 (11760407_x_at) / Fold change /veh TMEM136 (11760407_x_at) / RFU CLDN22 /// WWC2 (11732394_at) / Fold change /veh CLDN22 /// WWC2 (11732394_at) / RFU HLA-DPB1 (11760878_x_at) / Fold change /veh HLA-DPB1 (11760878_x_at) / RFU SPINT1 (11716480_a_at) / Fold change /veh SPINT1 (11716480_a_at) / RFU GAP43 (11754022_s_at) / Fold change /veh GAP43 (11754022_s_at) / RFU A4GNT (11735810_at) / Fold change /veh A4GNT (11735810_at) / RFU PRB3 (11715151_x_at) / Fold change /veh PRB3 (11715151_x_at) / RFU TUBB4B (11761932_at) / Fold change /veh TUBB4B (11761932_at) / RFU CAPN14 (11732068_a_at) / Fold change /veh CAPN14 (11732068_a_at) / RFU TMCC2 (11721928_a_at) / Fold change /veh TMCC2 (11721928_a_at) / RFU IRGQ (11745062_a_at) / Fold change /veh IRGQ (11745062_a_at) / RFU FAM174B (11720279_a_at) / Fold change /veh FAM174B (11720279_a_at) / RFU TMPRSS4 (11748680_a_at) / Fold change /veh TMPRSS4 (11748680_a_at) / RFU FAM212B (11763350_a_at) / Fold change /veh FAM212B (11763350_a_at) / RFU PLEKHG5 (11743358_a_at) / Fold change /veh PLEKHG5 (11743358_a_at) / RFU ZSCAN30 (11745921_a_at) / Fold change /veh ZSCAN30 (11745921_a_at) / RFU CMKLR1 (11741424_a_at) / Fold change /veh CMKLR1 (11741424_a_at) / RFU LOC101060620 /// MAPK8IP1 (11723275_at) / Fold change /veh LOC101060620 /// MAPK8IP1 (11723275_at) / RFU SPTSSB (11747773_x_at) / Fold change /veh SPTSSB (11747773_x_at) / RFU PRSS12 (11739890_at) / Fold change /veh PRSS12 (11739890_at) / RFU BIN1 (11741810_x_at) / Fold change /veh BIN1 (11741810_x_at) / RFU WNT11 (11732464_a_at) / Fold change /veh WNT11 (11732464_a_at) / RFU C10orf10 (11716521_a_at) / Fold change /veh C10orf10 (11716521_a_at) / RFU C5orf56 (11738089_at) / Fold change /veh C5orf56 (11738089_at) / RFU CYB561 (11721691_x_at) / Fold change /veh CYB561 (11721691_x_at) / RFU ANKRD19P (11752326_a_at) / Fold change /veh ANKRD19P (11752326_a_at) / RFU OR2T12 /// OR2T33 /// OR2T8 (11738714_s_at) / Fold change /veh OR2T12 /// OR2T33 /// OR2T8 (11738714_s_at) / RFU VCAN (11748164_a_at) / Fold change /veh VCAN (11748164_a_at) / RFU JSRP1 (11732532_at) / Fold change /veh JSRP1 (11732532_at) / RFU KRTAP10-11 (11738290_x_at) / Fold change /veh KRTAP10-11 (11738290_x_at) / RFU MYO3A (11730013_a_at) / Fold change /veh MYO3A (11730013_a_at) / RFU EBF3 (11725865_a_at) / Fold change /veh EBF3 (11725865_a_at) / RFU CAMK2N1 (11719241_x_at) / Fold change /veh CAMK2N1 (11719241_x_at) / RFU C5orf56 (11738088_a_at) / Fold change /veh C5orf56 (11738088_a_at) / RFU OLFML3 (11715873_a_at) / Fold change /veh OLFML3 (11715873_a_at) / RFU LOC100653217 /// NTM (11731650_a_at) / Fold change /veh LOC100653217 /// NTM (11731650_a_at) / RFU MAPK11 (11762145_a_at) / Fold change /veh MAPK11 (11762145_a_at) / RFU FIZ1 (11724087_x_at) / Fold change /veh FIZ1 (11724087_x_at) / RFU OASL (11726364_x_at) / Fold change /veh OASL (11726364_x_at) / RFU SOX15 (11748057_x_at) / Fold change /veh SOX15 (11748057_x_at) / RFU CD79A (11719716_a_at) / Fold change /veh CD79A (11719716_a_at) / RFU HIST1H1D (11736915_at) / Fold change /veh HIST1H1D (11736915_at) / RFU CASKIN2 (11723855_a_at) / Fold change /veh CASKIN2 (11723855_a_at) / RFU LOC730098 (11760151_x_at) / Fold change /veh LOC730098 (11760151_x_at) / RFU OR4N2 (11742367_at) / Fold change /veh OR4N2 (11742367_at) / RFU PRRT2 (11749266_a_at) / Fold change /veh PRRT2 (11749266_a_at) / RFU SNX32 (11753110_a_at) / Fold change /veh SNX32 (11753110_a_at) / RFU CDHR5 (11726645_a_at) / Fold change /veh CDHR5 (11726645_a_at) / RFU RCAN1 (11760418_a_at) / Fold change /veh RCAN1 (11760418_a_at) / RFU FAM167A (11723789_a_at) / Fold change /veh FAM167A (11723789_a_at) / RFU FAM26E (11764081_at) / Fold change /veh FAM26E (11764081_at) / RFU ISYNA1 (11749810_s_at) / Fold change /veh ISYNA1 (11749810_s_at) / RFU ACY1 (11761880_at) / Fold change /veh ACY1 (11761880_at) / RFU 11764098_at / Fold change /veh 11764098_at / RFU SAMD14 (11745864_x_at) / Fold change /veh SAMD14 (11745864_x_at) / RFU NPB (11741838_a_at) / Fold change /veh NPB (11741838_a_at) / RFU TMPRSS6 (11731388_a_at) / Fold change /veh TMPRSS6 (11731388_a_at) / RFU KRTAP10-2 (11738614_at) / Fold change /veh KRTAP10-2 (11738614_at) / RFU ARHGAP8 /// PRR5-ARHGAP8 (11727945_x_at) / Fold change /veh ARHGAP8 /// PRR5-ARHGAP8 (11727945_x_at) / RFU KRTAP5-7 /// NADSYN1 (11734609_at) / Fold change /veh KRTAP5-7 /// NADSYN1 (11734609_at) / RFU RASL12 (11751679_a_at) / Fold change /veh RASL12 (11751679_a_at) / RFU CDKN2B (11736163_a_at) / Fold change /veh CDKN2B (11736163_a_at) / RFU PRF1 (11729649_at) / Fold change /veh PRF1 (11729649_at) / RFU, ZNF638 /// ZNF638-IT1 / Fold change vs veh, ZNF638 /// ZNF638-IT1 / RFU, PANK3 / Fold change vs veh, PANK3 / RFU, SH3YL1 / Fold change vs veh, SH3YL1 / RFU, ZEB2 / Fold change vs veh, ZEB2 / RFU, NRIP1 / Fold change vs veh, NRIP1 / RFU, PTTG1IP / Fold change vs veh, PTTG1IP / RFU, CAPN2 / Fold change vs veh, CAPN2 / RFU, MED14 / Fold change vs veh, MED14 / RFU, SNORA58 / Fold change vs veh, SNORA58 / RFU, C1orf63 / Fold change vs veh, C1orf63 / RFU, LRRFIP1 / Fold change vs veh, LRRFIP1 / RFU, NDUFAF7 / Fold change vs veh, NDUFAF7 / RFU, SLC12A2 / Fold change vs veh, SLC12A2 / RFU, IBTK / Fold change vs veh, IBTK / RFU, ESF1 / Fold change vs veh, ESF1 / Fold change vs veh, TMEM50B / RFU, TAOK1 / Fold change vs veh, TAOK1 / RFU, ACBD3 / Fold change vs veh, ACBD3 / RFU, TMA16 / Fold change vs veh, TMA16 / RFU, RWDD3 / Fold change vs veh, RWDD3 / RFU, BCAT1 / Fold change vs veh, BCAT1 / RFU, EDEM3 / Fold change vs veh, EDEM3 / RFU, TMEM33 / Fold change vs veh, TMEM33 / RFU, WDR75 / Fold change vs veh, WDR75 / RFU, AHCTF1 / Fold change vs veh, AHCTF1 / RFU, TFRC / Fold change vs veh, TFRC / RFU, ZDHHC17 / Fold change vs veh, ZDHHC17 / RFU, NOM1 / Fold change vs veh, NOM1 / RFU, ARL8B / Fold change vs veh, ARL8B / RFU, ZBTB11 / Fold change vs veh, ZBTB11 / RFU, TAMM41 / Fold change vs veh, TAMM41 / RFU, KIAA1704 /// LOC100996395 / Fold change vs veh, KIAA1704 /// LOC100996395 / RFU, ING1 / Fold change vs veh, ING1 / RFU, TRMT61B / Fold change vs veh, TRMT61B / RFU, FUBP3 / Fold change vs veh, FUBP3 / RFU, TP53 / Fold change vs veh, TP53 / RFU, TNKS2 / Fold change vs veh, TNKS2 / RFU, ZFP14 / Fold change vs veh, ZFP14 / RFU, ACTR2 / Fold change vs veh, ACTR2 / RFU, PPP3R1 / Fold change vs veh, PPP3R1 / RFU, PIK3R1 / Fold change vs veh, PIK3R1 / RFU, HNRNPA1 / Fold change vs veh, HNRNPA1 / RFU, RNF170 / Fold change vs veh, RNF170 / RFU, ZNF28 / Fold change vs veh, ZNF28 / RFU, RNGTT / Fold change vs veh, RNGTT / RFU, OGT / Fold change vs veh, OGT / RFU, BRD1 / Fold change vs veh, BRD1 / RFU, MARS / Fold change vs veh, MARS / RFU, ZNF655 / Fold change vs veh, ZNF655 / RFU, FAHD1 / Fold change vs veh, FAHD1 / RFU, BDP1 / Fold change vs veh, BDP1 / RFU, LRRCC1 / Fold change vs veh, LRRCC1 / RFU, ARID1A / Fold change vs veh, ARID1A / RFU, ZNF146 / Fold change vs veh, ZNF146 / RFU, ZNF330 / Fold change vs veh, ZNF330 / RFU, GPN3 / Fold change vs veh, GPN3 / RFU, C9orf123 / Fold change vs veh, C9orf123 / RFU, N4BP2L2 / Fold change vs veh, N4BP2L2 / RFU, ARFIP1 / Fold change vs veh, ARFIP1 / RFU, FAM179B / Fold change vs veh, FAM179B / RFU, BCL10 / Fold change vs veh, BCL10 / RFU, UHRF1BP1L / Fold change vs veh, UHRF1BP1L / RFU, BET1 / Fold change vs veh, BET1 / RFU, CNOT2 / Fold change vs veh, CNOT2 / RFU, ZNF268 / Fold change vs veh, ZNF268 / Fold change vs veh, ZNF507 / RFU, DGCR2 / Fold change vs veh, DGCR2 / RFU, WDSUB1 / Fold change vs veh, WDSUB1 / Fold change vs veh, HSP90B1 /// MIR3652 / RFU, ADSS / Fold change vs veh, ADSS / RFU, GK / Fold change vs veh, GK / RFU, ZNF148 / Fold change vs veh, ZNF148 / RFU, TAF9 / Fold change vs veh, TAF9 / RFU, SLC1A5 / Fold change vs veh, SLC1A5 / RFU, SLMO2 / Fold change vs veh, SLMO2 / RFU, ABCC4 / Fold change vs veh, ABCC4 / RFU, LOC101060439 /// RAP1B / Fold change vs veh, LOC101060439 /// RAP1B / RFU, RFX7 / Fold change vs veh, RFX7 / RFU, GTPBP10 / Fold change vs veh, GTPBP10 / RFU, CNEP1R1 / Fold change vs veh, CNEP1R1 / RFU, BIVM-ERCC5 /// ERCC5 / Fold change vs veh, BIVM-ERCC5 /// ERCC5 / RFU, ILF3 / Fold change vs veh, ILF3 / RFU 11762660_at / Fold change /veh 11762660_at / RFU VCAN (11757783_s_at) / Fold change /veh VCAN (11757783_s_at) / RFU DDX43 (11728927_at) / Fold change /veh DDX43 (11728927_at) / RFU KRT8 (11758188_x_at) / Fold change /veh KRT8 (11758188_x_at) / RFU NKD1 (11759106_at) / Fold change /veh NKD1 (11759106_at) / RFU SRD5A1 (11742802_a_at) / Fold change /veh SRD5A1 (11742802_a_at) / RFU TPSAB1 /// TPSB2 (11721975_s_at) / Fold change /veh TPSAB1 /// TPSB2 (11721975_s_at) / RFU GSTM3 (11746129_a_at) / Fold change /veh GSTM3 (11746129_a_at) / RFU IL23R (11737362_x_at) / Fold change /veh IL23R (11737362_x_at) / RFU TMEM51 (11727254_a_at) / Fold change /veh TMEM51 (11727254_a_at) / RFU PIWIL2 (11732686_x_at) / Fold change /veh PIWIL2 (11732686_x_at) / RFU ORM1 (11744905_x_at) / Fold change /veh ORM1 (11744905_x_at) / RFU CCDC152 (11743942_at) / Fold change /veh CCDC152 (11743942_at) / RFU ECM1 (11717891_a_at) / Fold change /veh ECM1 (11717891_a_at) / RFU IL23R (11748794_a_at) / Fold change /veh IL23R (11748794_a_at) / RFU TNFAIP8L3 (11732012_x_at) / Fold change /veh TNFAIP8L3 (11732012_x_at) / RFU MBOAT4 (11741988_at) / Fold change /veh MBOAT4 (11741988_at) / RFU 11764193_at / Fold change /veh 11764193_at / RFU TMEM53 (11763286_at) / Fold change /veh TMEM53 (11763286_at) / RFU MAGEB2 (11727129_at) / Fold change /veh MAGEB2 (11727129_at) / RFU TMEM200A (11744735_a_at) / Fold change /veh TMEM200A (11744735_a_at) / RFU CCDC152 (11751479_a_at) / Fold change /veh CCDC152 (11751479_a_at) / RFU FAM211A (11726209_a_at) / Fold change /veh FAM211A (11726209_a_at) / RFU RGS16 (11746705_a_at) / Fold change /veh RGS16 (11746705_a_at) / RFU VCAN (11755009_s_at) / Fold change /veh VCAN (11755009_s_at) / RFU RHOB (11743442_s_at) / Fold change /veh RHOB (11743442_s_at) / RFU RGS16 (11720943_a_at) / Fold change /veh RGS16 (11720943_a_at) / RFU RGS16 (11720944_at) / Fold change /veh RGS16 (11720944_at) / RFU, VPS4B / Fold change vs veh, VPS4B / RFU, CREB1 / Fold change vs veh, CREB1 / RFU, DNAJC13 / Fold change vs veh, DNAJC13 / RFU, GNAQ / Fold change vs veh, GNAQ / RFU, CDK5R1 / Fold change vs veh, CDK5R1 / RFU, ZRANB3 / Fold change vs veh, ZRANB3 / RFU, CUL4A / Fold change vs veh, CUL4A / RFU, CCNY / Fold change vs veh, CCNY / RFU, UFL1 / Fold change vs veh, UFL1 / RFU, COG3 / Fold change vs veh, COG3 / RFU, DIAPH2 / Fold change vs veh, DIAPH2 / RFU, SKA2 / Fold change vs veh, SKA2 / RFU, AFF3 / Fold change vs veh, AFF3 / RFU, LMF1 / Fold change vs veh, LMF1 / RFU, IPO11 / Fold change vs veh, IPO11 / RFU, DFFB / Fold change vs veh, DFFB / RFU, FOXP1 / Fold change vs veh, FOXP1 / RFU, CARD8 / Fold change vs veh, CARD8 / RFU, STRN3 / Fold change vs veh, STRN3 / RFU, ADK / Fold change vs veh, ADK / RFU, RASSF2 / Fold change vs veh, RASSF2 / RFU, WIPF1 / Fold change vs veh, WIPF1 / RFU, LARP1B / Fold change vs veh, LARP1B / RFU, RASA1 / Fold change vs veh, RASA1 / RFU, RB1 / Fold change vs veh, RB1 / RFU, PPFIA1 / Fold change vs veh, PPFIA1 / RFU, MAT2A / Fold change vs veh, MAT2A / RFU, CCT5 / Fold change vs veh, CCT5 / RFU, WDR92 / Fold change vs veh, WDR92 / RFU, CUX1 / Fold change vs veh, CUX1 / RFU, TTC7A / Fold change vs veh, TTC7A / RFU, TMEM135 / Fold change vs veh, TMEM135 / RFU, DEPTOR / Fold change vs veh, DEPTOR / RFU, CPM / Fold change vs veh, CPM / RFU, DNAJB6 / Fold change vs veh, DNAJB6 / RFU, CACNA2D3 / Fold change vs veh, CACNA2D3 / RFU, DTX4 / Fold change vs veh, DTX4 / RFU, TFCP2 / Fold change vs veh, TFCP2 / RFU, GMCL1 /// GMCL1P1 / Fold change vs veh, GMCL1 /// GMCL1P1 / RFU, AEBP2 / Fold change vs veh, AEBP2 / RFU, SNHG1 /// SNORD22 /// SNORD25 /// SNORD26 /// SNORD27 /// SNORD28 /// SNORD29 /// SNORD31 / Fold change vs veh, SNHG1 /// SNORD22 /// SNORD25 /// SNORD26 /// SNORD27 /// SNORD28 /// SNORD29 /// SNORD31 / Fold change (Aza/veh), C12orf56 (ProbeSet 11735607_a_at) / Fold change (ACY-1035/veh), C12orf56 (ProbeSet 11735607_a_at) / Fold change (Aza/veh), FGFR1OP (ProbeSet 11751329_s_at) / Fold change (ACY-1035/veh), FGFR1OP (ProbeSet 11751329_s_at) / Fold change (Aza/veh), VPS36 (ProbeSet 11739960_a_at) / Fold change (ACY-1035/veh), VPS36 (ProbeSet 11739960_a_at) / RFU SYPL1 (11715823_x_at) / Fold change /veh SYPL1 (11715823_x_at) / RFU IGFBP7 (11715501_s_at) / Fold change /veh IGFBP7 (11715501_s_at) / RFU REEP3 (11722064_at) / Fold change /veh REEP3 (11722064_at) / RFU IGLL1 (11728026_x_at) / Fold change /veh IGLL1 (11728026_x_at): dose or concentration left out as unconfirmed
Conditions: ProbeSet 11732433_s_at; LIST B

## Nc1ccc(-c2cccs2)cc1NC(=O)c1ccc2c(c1)cc(C1CC1)n2CCN1CCOCC1 [ACY-1035]
  Fold change vs veh, GK: 1.08
